According to patent publication US20130172306A1, “USE OF AN ESTROGEN DERIVATIVE FOR THE MANUFACTURE OF PHARMACEUTICAL COMPOSITIONS USEFUL FOR THE TREATMENT AND/OR PREVENTION OF PSYCHIATRIC DISEASES AND FOR THE TREATMENT AND PREVENTION OF SAID DISEASES” (priority 2010, published 2013):

Columns and labels:
[1] = test system: ovariectomised female Sprague-Dawley rats; assay: novelty suppressed feeding (NSF) test; format: in vivo, rat; conditions: through a stomach tube, tested two hours after administration, after 24 h food deprivation, versus vehicle, p<0.05
Protocol: In the course of our experiment the active agent 17-alpha-estradiol of formula (I) was tested in the animal model “novelty suppressed feeding” (NSF). NFS is a conflict test during which the subject of the test has to resolve a conflict between the stimulus of urgent food intake and the anxiety induced by a novel environment [Bodnoff S R et al.: The effects of chronic antidepressant treatment in an animal model of anxiety. Psychopharmacology (Berl) 95:298-302 (1988)]; Bodnoff S R et al.: A comparison of the effects of diazepam versus several typical and atypical anti-depressant drugs in an animal model of anxiety. Psychopharmacology (Berl) 97:277-279 (1989)]. The NSF model has widespread use in studying efficiency and mechanism of antidepressant drugs and in identification of new antidepressant drugs [Santarelli L et al.: Requirement of hippocampal neurogenesis for the behavioral effects of antidepressants. Science 301:805-809 (2003); Warner-Schmidt J L et al.: VEGF is an essential mediator of the neurogenic and behavioral actions of antidepressants. […]
At the beginning of the NSF test the test animal was placed in a corner of a 75×75×50 cm dark Plexiglas cage. […] The time from the start of the test to the beginning of food intake (first biting) was measured and recorded. Every test was recorded by means of a video camera suspended over the cage. […]

[2] = test system: LAPC-4 prostate tumour cells; conditions: cell cultures; Kuiao Y et al. 2007; cited from earlier work
[3] = test system: LAPC-4 prostate tumour xenograft; conditions: xenograft animals; Kuiao Y et al. 2007; cited from earlier work
[4] = test system: SK—N—SH cells; conditions: Green P S et al. 1997; cited from earlier work
[5] = test system: depression; conditions: preclinical and clinical studies from the literature; cited from earlier work

SMILES | time from the start of the test to the beginning of food intake (first biting) ([1]; A50 group: 50 μg/kg (b47 prints 50 mg/kg)) | time from the start of the test to the beginning of food intake (first biting) ([1]; A150 group: 150 μg/kg (b47 prints 150 mg/kg)) | proliferation of LAPC-4 prostate tumour cells [2] | increase of the tumour [3] | neuroprotective effect [4] | antidepressant effect [5]
C[C@]12CC[C@@H]3c4ccc(O)cc4CC[C@H]3[C@@H]1CC[C@H]2O [17-alpha-estradiol, estra-1,3,5(10)-triene-3,17α-diol] | shorter time than the control animals | shorter time than the control animals | inhibits proliferation | inhibits | had a neuroprotective effect | 
C[C@]12CC[C@@H]3c4ccc(O)cc4CC[C@H]3[C@@H]1CC[C@@H]2O [17-beta-estradiol] |  |  |  |  |  | no antidepressant effect
